How the values were obtained:
Assay type in all cases: biochemical
[1] = biological target: PRMT1 (Homo sapiens, UniProt Q99873); assay: PRMT1 IC50 assay; settings: read-out: IC50 for PRMT1; 200 nM PRMT1, 15 µM 14C-methyl-SAM, 25 µM AcH4-21, 37 °C
[2] = system: PRMT3; assay: PRMT3 IC50 assay; settings: read-out: IC50 for PRMT3; 500 nM PRMT3, 15 µM 14C-methyl-SAM, 250 µM RGG, 37 °C
[3] = system: CARM1/PRMT4; assay: CARM1/PRMT4 IC50 assay; settings: read-out: IC50 for PRMT4; 150 nM CARM1/PRMT4, 15 µM 14C-methyl-SAM, 10 µM histone H3, 30 °C
[4] = biological target: PRMT6 (Homo sapiens, UniProt Q96LA8); assay: PRMT6 IC50 assay; settings: read-out: IC50 for PRMT6; 500 nM PRMT6, 15 µM 14C-methyl-SAM, 30 µM histone H3, 37 °C
Chain of PRMT6 (Q96LA8 whole entry, species assumed): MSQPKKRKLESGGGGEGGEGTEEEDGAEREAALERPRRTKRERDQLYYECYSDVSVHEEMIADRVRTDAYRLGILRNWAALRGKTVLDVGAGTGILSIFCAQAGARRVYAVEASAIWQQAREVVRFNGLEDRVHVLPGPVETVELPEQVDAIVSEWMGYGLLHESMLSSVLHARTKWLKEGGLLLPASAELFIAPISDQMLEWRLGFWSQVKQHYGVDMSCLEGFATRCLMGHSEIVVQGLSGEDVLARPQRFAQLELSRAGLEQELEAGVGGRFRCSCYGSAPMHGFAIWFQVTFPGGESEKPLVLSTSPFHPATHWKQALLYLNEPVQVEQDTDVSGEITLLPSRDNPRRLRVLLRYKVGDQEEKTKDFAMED

Chain of PRMT1 (Q99873 1-353 isoform Q99873-3): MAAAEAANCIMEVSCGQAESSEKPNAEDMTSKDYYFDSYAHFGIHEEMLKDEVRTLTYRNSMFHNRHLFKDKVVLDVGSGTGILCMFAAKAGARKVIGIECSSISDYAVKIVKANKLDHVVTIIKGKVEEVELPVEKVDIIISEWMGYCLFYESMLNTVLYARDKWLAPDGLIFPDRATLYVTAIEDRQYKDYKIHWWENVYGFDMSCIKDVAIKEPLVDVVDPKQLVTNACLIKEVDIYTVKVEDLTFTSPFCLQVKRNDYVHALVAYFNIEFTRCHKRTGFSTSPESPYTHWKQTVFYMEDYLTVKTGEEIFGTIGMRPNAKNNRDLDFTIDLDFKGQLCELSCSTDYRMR

IC50 [1] [µM] | IC50 [2] [µM] | IC50 [3] [µM] | IC50 [4] [µM] | Compound
> 500 | > 500 | > 500 | > 500 | NC(=O)[C@H](CCCN=C(N)CF)NC(=O)c1ccccc1 [F-amidine]
225 ± 10 | > 500 | > 500 | > 500 | NC(=O)[C@H](CCCN=C(N)CCl)NC(=O)c1ccccc1 [Cl-amidine]

— article PMC3060404 (Chembiochem : a European journal of chemical biology, 2010)
